Where two headings read alike, the source gives them in different places.
How the values were obtained:
[1] = test system: SARS-CoV-2; assay: Mouse model of adenovirus-mediated hACE2 infected with SARS-CoV-2; format: in vivo
[2] = test system: Vero E6 cells; settings: Vero E6, absence of virus, 3 days
[3] = test system: CD45+ cells; assay: Ex vivo cytokine expression (IL 6, IL 10, TNFα) in LPS-B5 stimulated CD45+ cells from broncho-alveolar lavages of treated mice; settings: CD45+ cells from plitidepsin treated mice
Text: An ex vivo study assessed the effect of plitidepsin on expression of the cytokines IL 6, IL 10, and TNFα in the lungs of mice.

[4] = test system: SARS-CoV-2 (COVID-19); assay: Study APLICOV-PC (NCT04382066): efficacy in patients hospitalised for COVID-19; format: in vivo, human; settings: for Patients discharged from hospital by Day 8, (%): 192 h; for Patients discharged from hospital by Day 31, (%) / Patients requiring oxygen therapy at Day 31, (%): 744 h
[5] = test system: NFκB; settings: tumour cells, early in vitro studies; cited from earlier work
[6] = test system: HCoV-229E; format: cell-based
[7] = biological target: T1, eEF1A (Oryctolagus cuniculus, UniProt Q71V39); settings: 14C-plitidepsin, eEF1A purified from rabbit muscle; cited from earlier work
T1 construct: eEF1A purified from rabbit muscle; from tissue; host or cells: rabbit muscle
T1 sequence (Q71V39 whole entry): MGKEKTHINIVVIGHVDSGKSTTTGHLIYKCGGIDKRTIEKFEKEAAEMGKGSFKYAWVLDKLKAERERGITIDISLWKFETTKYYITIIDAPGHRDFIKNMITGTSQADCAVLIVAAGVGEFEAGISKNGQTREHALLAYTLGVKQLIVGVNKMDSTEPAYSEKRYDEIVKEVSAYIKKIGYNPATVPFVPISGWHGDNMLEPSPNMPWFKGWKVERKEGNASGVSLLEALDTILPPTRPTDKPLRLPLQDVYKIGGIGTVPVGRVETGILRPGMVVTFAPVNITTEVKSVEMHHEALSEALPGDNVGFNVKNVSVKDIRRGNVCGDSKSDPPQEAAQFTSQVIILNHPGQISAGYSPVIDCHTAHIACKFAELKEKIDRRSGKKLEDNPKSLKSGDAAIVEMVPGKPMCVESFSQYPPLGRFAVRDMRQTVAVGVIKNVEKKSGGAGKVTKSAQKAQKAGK

[8] = Storage stability of plitidepsin vials and reconstituted solution; format: physicochemical
Description: Plitidepsin will be labelled with the study protocol code, the batch number, the content, the expiry date, the storage conditions, the name of the investigator and the sponsor. The study drug will be labelled in accordance with Annex 13 of the European Good Manufacturing Practices. Plitidepsin should be stored between 2° C. and 8° C. and the vials should be kept in the outer carton to protect them from light. The drug in these conditions is stable for 60 months.
After reconstitution of the 2 mg plitidepsin vial with 4 ml of the solution for reconstitution of macrogolglycerol ricinoleate/ethanol/water for injection, the reconstituted solution should be diluted and used immediately after preparation. If not used immediately, storage times and conditions until use are the responsibility of the user. […] If storage is required before administration, solutions should be stored refrigerated and protected from light and should be used within 24 hours after reconstitution.

[9] = cancer patients, single-agent plitidepsin; cited from earlier work
[10] = test system: THP-1 cells; assay: Proinflammatory cytokine secretion in stimulated THP-1 cells; format: cell-based; settings: THP-1 cells stimulated with pathogen-associated molecular patterns-mimicking compounds
Description: In vitro studies were performed using THP-1 cells, a spontaneously immortalised monocyte-like cell line derived from the peripheral blood of a childhood case of acute monocytic leukaemia, that is widely used for investigating monocyte structure and function.

[11] = in vitro; settings: African green monkey
[12] = test system: SARS-CoV-2; assay: SARS-CoV-2 replication in human stem cell-derived pneumocyte like cells; format: cell-based; settings: 10 nm plitidepsin for 1 hour before infection (4×10^4 pfu), 48 hour incubation
Description: Several in vitro experiments aimed at determining the effect of plitidepsin on SARS-CoV-2 were carried out and are disclosed herein. […] In another study, human stem cell-derived pneumocyte like cells were prophylactically exposed to 10 nm plitidepsin for 1 hour and then infected with SARS-CoV-2 (4×10^4 plaque forming units). After a 48 hour incubation period, both antiviral and cytotoxic plitidepsin effects were determined.

[13] = test system: SARS-CoV-2; assay: Transgenic K18-hACE2 mice infected with SARS-CoV-2; format: in vivo

CC[C@H](C)[C@H]1NC(=O)[C@@H](NC(=O)[C@@H](CC(C)C)N(C)C(=O)[C@@H]2CCCN2C(=O)C(C)=O)[C@@H](C)OC(=O)[C@H](Cc2ccc(OC)cc2)N(C)C(=O)[C@@H]2CCCN2C(=O)[C@H](CC(C)C)NC(=O)[C@@H](C)C(=O)[C@H](C(C)C)OC(=O)C[C@@H]1O [PLD, (−)-(3S,6R,7S,10R,11S,15S,17S,20S,25aS)-11-hydroxy-3-(4-methoxybenzyl)-2,6,17-trimethyl-15-(1-methylethyl)-7-[[(2R)-4-methyl-2-[methyl[[(2S)-1-(2-oxopropanoyl)pyrrolidin-2-yl]carbonyl]amino]pentanoyl]amino]-10-[(1S)-1-methylpropyl]-20-(2-methylpropyl)tetradecahydro-15H-pyrrolo[2,1-f]-[1,15,4,7,10,20]dioxatetrazacyclotricosine-1,4,8,13,16,18,21(17H)-heptone]
Antiviral effects in vivo [1]: potent antiviral effects in vivo
Cytotoxic effects of the drug at concentrations inhibiting viral-induced cytopathic effects [2]: no cytotoxic effects of the drug were observed
IL 6, IL 10 and TNFα production upon LPS-B5 stimulation compared with nonstimulated controls [3]: failed to show a marked increase in IL 6, IL 10, and TNFα
Mean time from baseline until undetectable viral load [4]: 11 days
Mortality from Day 1 to Day 31, (%) [4]: (4.5) %
Patients requiring ICU admission from Day 1 to Day 7, (%) [4]: (11.4) %
Patients requiring ICU admission from Day 1 to Day 15, (%) [4]: (13.6) %
Patients requiring ICU admission from Day 1 to Day 31, (%) [4]: (13.6) %
Patients requiring invasive mechanical ventilation and/or ICU admission from Day 1 to Day 7, (%) [4]: (11.4) %
Patients requiring invasive mechanical ventilation and/or ICU admission from Day 1 to Day 15, (%) [4]: (13.6) %
Patients requiring invasive mechanical ventilation and/or ICU admission from Day 1 to Day 31, (%) [4]: (13.6) %
Patients requiring noninvasive mechanical ventilation from Day 1 to Day 7, (%) [4]: (9.1) %
Patients requiring noninvasive mechanical ventilation from Day 1 to Day 15, (%) [4]: (11.4) %
Patients requiring noninvasive mechanical ventilation from Day 1 to Day 31, (%) [4]: (13.6) %
Mean time from baseline until undetectable viral load ([4]; 1.5 mg): 7 days
Mortality from Day 1 to Day 31, (%) ([4]; 1.5 mg): (7.1) %
Patients requiring ICU admission from Day 1 to Day 7, (%) ([4]; 1.5 mg): (14.3) %
Patients requiring ICU admission from Day 1 to Day 15, (%) ([4]; 1.5 mg): (14.3) %
Patients requiring ICU admission from Day 1 to Day 31, (%) ([4]; 1.5 mg): (14.3) %
Patients requiring invasive mechanical ventilation and/or ICU admission from Day 1 to Day 7, (%) ([4]; 1.5 mg): (14.3) %
Patients requiring invasive mechanical ventilation and/or ICU admission from Day 1 to Day 15, (%) ([4]; 1.5 mg): (14.3) %
Patients requiring invasive mechanical ventilation and/or ICU admission from Day 1 to Day 31, (%) ([4]; 1.5 mg): (14.3) %
Patients requiring noninvasive mechanical ventilation from Day 1 to Day 7, (%) ([4]; 1.5 mg): (21.4) %
Patients requiring noninvasive mechanical ventilation from Day 1 to Day 15, (%) ([4]; 1.5 mg): (21.4) %
Patients requiring noninvasive mechanical ventilation from Day 1 to Day 31, (%) ([4]; 1.5 mg): (21.4) %
Patients requiring oxygen therapy at Day 7, (%) ([4]; 1.5 mg, 168 h): (71.4) %
Patients discharged from hospital by Day 8, (%) ([4]; 1.5 mg): (42.9) %
Patients discharged from hospital by Day 15, (%) ([4]; 1.5 mg, 360 h): (78.6) %
Patients requiring oxygen therapy at Day 15, (%) ([4]; 1.5 mg, 360 h): (28.6) %
Patients discharged from hospital by Day 31, (%) ([4]; 1.5 mg): (92.9) %
Mean time from baseline until undetectable viral load ([4]; 2 mg): 13 days
Patients requiring ICU admission from Day 1 to Day 7, (%) ([4]; 2 mg): (6.7) %
Patients requiring ICU admission from Day 1 to Day 15, (%) ([4]; 2 mg): (6.7) %
Patients requiring ICU admission from Day 1 to Day 31, (%) ([4]; 2 mg): (6.7) %
Patients requiring invasive mechanical ventilation and/or ICU admission from Day 1 to Day 7, (%) ([4]; 2 mg): (6.7) %
Patients requiring invasive mechanical ventilation and/or ICU admission from Day 1 to Day 15, (%) ([4]; 2 mg): (6.7) %
Patients requiring invasive mechanical ventilation and/or ICU admission from Day 1 to Day 31, (%) ([4]; 2 mg): (6.7) %
Patients requiring noninvasive mechanical ventilation from Day 1 to Day 31, (%) ([4]; 2 mg): (6.7) %
Patients requiring oxygen therapy at Day 7, (%) ([4]; 2 mg, 168 h): (66.7) %
Patients discharged from hospital by Day 8, (%) ([4]; 2 mg): (60.0) %
Patients discharged from hospital by Day 15, (%) ([4]; 2 mg, 360 h): (93.3) %
Patients requiring oxygen therapy at Day 15, (%) ([4]; 2 mg, 360 h): (6.7) %
Patients discharged from hospital by Day 31, (%) ([4]; 2 mg): (93.3) %
Patients requiring oxygen therapy at Day 31, (%) ([4]; 2 mg): (13.3) %
Mean time from baseline until undetectable viral load ([4]; 2.5 mg): 12 days
Mortality from Day 1 to Day 31, (%) ([4]; 2.5 mg): (6.7) %
Patients requiring ICU admission from Day 1 to Day 7, (%) ([4]; 2.5 mg): (13.3) %
Patients requiring ICU admission from Day 1 to Day 15, (%) ([4]; 2.5 mg): (20.0) %
Patients requiring ICU admission from Day 1 to Day 31, (%) ([4]; 2.5 mg): (20.0) %
Patients requiring invasive mechanical ventilation and/or ICU admission from Day 1 to Day 7, (%) ([4]; 2.5 mg): (13.3) %
Patients requiring invasive mechanical ventilation and/or ICU admission from Day 1 to Day 15, (%) ([4]; 2.5 mg): (20.0) %
Patients requiring invasive mechanical ventilation and/or ICU admission from Day 1 to Day 31, (%) ([4]; 2.5 mg): (20.0) %
Patients requiring noninvasive mechanical ventilation from Day 1 to Day 7, (%) ([4]; 2.5 mg): (6.7) %
Patients requiring noninvasive mechanical ventilation from Day 1 to Day 15, (%) ([4]; 2.5 mg): (13.3) %
Patients requiring noninvasive mechanical ventilation from Day 1 to Day 31, (%) ([4]; 2.5 mg): (13.3) %
Patients requiring oxygen therapy at Day 7, (%) ([4]; 2.5 mg, 168 h): (73.3) %
Patients discharged from hospital by Day 8, (%) ([4]; 2.5 mg): (66.7) %
Patients discharged from hospital by Day 15, (%) ([4]; 2.5 mg, 360 h): (73.3) %
Patients requiring oxygen therapy at Day 15, (%) ([4]; 2.5 mg, 360 h): (26.7) %
Patients discharged from hospital by Day 31, (%) ([4]; 2.5 mg): (86.7) %
Patients requiring oxygen therapy at Day 31, (%) ([4]; 2.5 mg): (6.7) %
Mean reduction in viral load by Day 7 ([4]; 168 h): −3.1 log10 copies/mL
Patients requiring oxygen therapy at Day 7, (%) ([4]; 168 h): (70.5) %
Patients discharged from hospital by Day 8, (%) [4]: (56.8) %
Patients discharged from hospital by Day 15, (%) ([4]; 360 h): (81.8) %
Patients requiring oxygen therapy at Day 15, (%) ([4]; 360 h): (20.5) %
Patients with mild disease discharged by Day 15 ([4]; 360 h): 100%
Patients with moderate disease discharged by Day 15 ([4]; 360 h): 82%
Patients with severe disease discharged by Day 15 ([4]; 360 h): 57%
Reduction in baseline viral load by Day 15 ([4]; 360 h): −3.0 log
Patients discharged from hospital by Day 31, (%) [4]: (90.9) %
Patients requiring oxygen therapy at Day 31, (%) [4]: (6.8) %
Mean reduction in viral load by Day 15 ([4]; across dose cohorts): 4.5 log10 copies/mL
Effect on NFκB [5]: induces down-regulation of NFκB
Concentration as low as which an antiviral effect was induced [6]: 0.5 nM
Binding affinity [7]: high affinity
Rate of dissociation [7]: low rate of dissociation
Stability of the drug on storage ([8]; between 2° C. and 8° C., vials in the outer carton protected from light): 60 months
Physical, chemical and microbiological stability of the reconstituted concentrated solution ([8]; original vial under indoor light at room temperature): 6 hours
Physical, chemical and microbiological stability of the reconstituted concentrated solution ([8]; refrigerated conditions (5° C.±3° C.)): 24 hours
AE asthenia/fatigue [9]: 83%
AE constipation [9]: 29%
AE diarrhoea [9]: 31%
AE nausea [9]: 64%
AE pyrexia [9]: 28%
AE vomiting [9]: 38%
Secretion of proinflammatory cytokines [10]: significantly reduced the secretion of the proinflammatory cytokines
CC50 [11]: 0.178 to 0.431 µM
Replication of SARS-CoV-2 [12]: completely eliminated replication of SARS-CoV-2
Antiviral effects in vivo [13]: potent antiviral effects in vivo
Tolerability of treatment (1.5, 2.0 and 2.5 mg daily for 3 days, 45 patients): well tolerated
Prevalence of Grade ≥3 AEs (1.5-mg cohort): 33.3%
Prevalence of Grade ≥3 AEs (2.0-mg cohort): 20.0%
Prevalence of Grade ≥3 AEs (2.5-mg cohort): 40.0
Events of special interest: Grade ≥3 ALT elevation (all cohorts): 1 case
Patients unable to complete plitidepsin treatment (all cohorts): 1 patient
Patients who experienced Grade ≥3 AEs (all cohorts (14/45)): 31%
Patients who experienced a treatment-related Grade ≥3 AE (all cohorts, 45 patients): 2 patients
Patients who experienced SAEs (dosed at 1.5 mg): 6 patients
Patients who experienced SAEs (dosed at 2.0 mg): 1 patients
Patients who experienced SAEs (dosed at 2.5 mg): 3 patients
Patients with a 2 grade increase in CPK (human, in vivo): 1 patient
Patients who experienced SAEs (total): 10 patients
